Molecular target: T1, LRRK2 (Homo sapiens, UniProt Q5S007, G2019S)
T1 construct: purchased Invitrogen PV4882 (lot 567054A)
Assay: In Vitro LRRK2 Assay (LabChip 3000, fluorescently-labeled peptide substrate, ATP)
Type: biochemical
Conditions: read-out: LRRK2 Ki (KI), Table 7
Method: This assay was used to determine a compound's potency in inhibiting activity of LRRK2 by determining, Kiapp, IC50, or percent inhibition values. In a polypropylene plate, LRRK2, fluorescently-labeled peptide substrate, ATP and test compound were incubated together. Using a LabChip 3000 (Caliper Life Sciences), after the reaction the substrate was separated by capillary electrophoresis into two populations: phosphorylated and unphosphorylated. The relative amounts of each were quantitated by fluorescence intensity. LRRK2 Ki was determined according to the equation: Y=V0*(1−(x+Ki*(1+S/Km)+Et)/(2*Et)−(((x+Ki*(1+S/Km)+Et)^2−(4*Et*x))^0.5)/(2*Et))). Ki values in Table 4 and elsewhere herein are shown in μM.
Assay conditions and materials used were as follows:
Compound Plate Preparation:
For serial dilutions, 34.6 μl DMSO was added to columns 3-24.
Total and Blank Preparation:
In Complete Reaction Buffer, substrate was diluted to 4 μM. Equal volumes of Complete Reaction Buffer and 4 μM substrate were combined to obtain the blank. Equal volumes of Complete Reaction Buffer and 4 μM substrate were combined and to the combined solution was added 2× final LRRK2 concentration.
To a 50 μl polypropylene plate, 5 μl/well buffer/substrate was added by hand to Blank wells. A Biomek FX was used to start the kinase reaction (“PLK SAR 23 ATP”). The following were added to the appropriate wells:
5 μl/well compound/ATP in Assay Plate;
5 μl/well kinase/substrate in Assay Plate;
The plate was incubated for 2 hours in the dark. Biomek FX was used to stop the kinase reaction (“PLK Stop”), and 10 μl/well Stop solution was added to the Assay Plate. Results were read on the LabChip 3000.
The LabChip 3000 was run using the job “LRRK2 IC50” with the following job settings: […]

T1 sequence (Q5S007 whole entry G2019S): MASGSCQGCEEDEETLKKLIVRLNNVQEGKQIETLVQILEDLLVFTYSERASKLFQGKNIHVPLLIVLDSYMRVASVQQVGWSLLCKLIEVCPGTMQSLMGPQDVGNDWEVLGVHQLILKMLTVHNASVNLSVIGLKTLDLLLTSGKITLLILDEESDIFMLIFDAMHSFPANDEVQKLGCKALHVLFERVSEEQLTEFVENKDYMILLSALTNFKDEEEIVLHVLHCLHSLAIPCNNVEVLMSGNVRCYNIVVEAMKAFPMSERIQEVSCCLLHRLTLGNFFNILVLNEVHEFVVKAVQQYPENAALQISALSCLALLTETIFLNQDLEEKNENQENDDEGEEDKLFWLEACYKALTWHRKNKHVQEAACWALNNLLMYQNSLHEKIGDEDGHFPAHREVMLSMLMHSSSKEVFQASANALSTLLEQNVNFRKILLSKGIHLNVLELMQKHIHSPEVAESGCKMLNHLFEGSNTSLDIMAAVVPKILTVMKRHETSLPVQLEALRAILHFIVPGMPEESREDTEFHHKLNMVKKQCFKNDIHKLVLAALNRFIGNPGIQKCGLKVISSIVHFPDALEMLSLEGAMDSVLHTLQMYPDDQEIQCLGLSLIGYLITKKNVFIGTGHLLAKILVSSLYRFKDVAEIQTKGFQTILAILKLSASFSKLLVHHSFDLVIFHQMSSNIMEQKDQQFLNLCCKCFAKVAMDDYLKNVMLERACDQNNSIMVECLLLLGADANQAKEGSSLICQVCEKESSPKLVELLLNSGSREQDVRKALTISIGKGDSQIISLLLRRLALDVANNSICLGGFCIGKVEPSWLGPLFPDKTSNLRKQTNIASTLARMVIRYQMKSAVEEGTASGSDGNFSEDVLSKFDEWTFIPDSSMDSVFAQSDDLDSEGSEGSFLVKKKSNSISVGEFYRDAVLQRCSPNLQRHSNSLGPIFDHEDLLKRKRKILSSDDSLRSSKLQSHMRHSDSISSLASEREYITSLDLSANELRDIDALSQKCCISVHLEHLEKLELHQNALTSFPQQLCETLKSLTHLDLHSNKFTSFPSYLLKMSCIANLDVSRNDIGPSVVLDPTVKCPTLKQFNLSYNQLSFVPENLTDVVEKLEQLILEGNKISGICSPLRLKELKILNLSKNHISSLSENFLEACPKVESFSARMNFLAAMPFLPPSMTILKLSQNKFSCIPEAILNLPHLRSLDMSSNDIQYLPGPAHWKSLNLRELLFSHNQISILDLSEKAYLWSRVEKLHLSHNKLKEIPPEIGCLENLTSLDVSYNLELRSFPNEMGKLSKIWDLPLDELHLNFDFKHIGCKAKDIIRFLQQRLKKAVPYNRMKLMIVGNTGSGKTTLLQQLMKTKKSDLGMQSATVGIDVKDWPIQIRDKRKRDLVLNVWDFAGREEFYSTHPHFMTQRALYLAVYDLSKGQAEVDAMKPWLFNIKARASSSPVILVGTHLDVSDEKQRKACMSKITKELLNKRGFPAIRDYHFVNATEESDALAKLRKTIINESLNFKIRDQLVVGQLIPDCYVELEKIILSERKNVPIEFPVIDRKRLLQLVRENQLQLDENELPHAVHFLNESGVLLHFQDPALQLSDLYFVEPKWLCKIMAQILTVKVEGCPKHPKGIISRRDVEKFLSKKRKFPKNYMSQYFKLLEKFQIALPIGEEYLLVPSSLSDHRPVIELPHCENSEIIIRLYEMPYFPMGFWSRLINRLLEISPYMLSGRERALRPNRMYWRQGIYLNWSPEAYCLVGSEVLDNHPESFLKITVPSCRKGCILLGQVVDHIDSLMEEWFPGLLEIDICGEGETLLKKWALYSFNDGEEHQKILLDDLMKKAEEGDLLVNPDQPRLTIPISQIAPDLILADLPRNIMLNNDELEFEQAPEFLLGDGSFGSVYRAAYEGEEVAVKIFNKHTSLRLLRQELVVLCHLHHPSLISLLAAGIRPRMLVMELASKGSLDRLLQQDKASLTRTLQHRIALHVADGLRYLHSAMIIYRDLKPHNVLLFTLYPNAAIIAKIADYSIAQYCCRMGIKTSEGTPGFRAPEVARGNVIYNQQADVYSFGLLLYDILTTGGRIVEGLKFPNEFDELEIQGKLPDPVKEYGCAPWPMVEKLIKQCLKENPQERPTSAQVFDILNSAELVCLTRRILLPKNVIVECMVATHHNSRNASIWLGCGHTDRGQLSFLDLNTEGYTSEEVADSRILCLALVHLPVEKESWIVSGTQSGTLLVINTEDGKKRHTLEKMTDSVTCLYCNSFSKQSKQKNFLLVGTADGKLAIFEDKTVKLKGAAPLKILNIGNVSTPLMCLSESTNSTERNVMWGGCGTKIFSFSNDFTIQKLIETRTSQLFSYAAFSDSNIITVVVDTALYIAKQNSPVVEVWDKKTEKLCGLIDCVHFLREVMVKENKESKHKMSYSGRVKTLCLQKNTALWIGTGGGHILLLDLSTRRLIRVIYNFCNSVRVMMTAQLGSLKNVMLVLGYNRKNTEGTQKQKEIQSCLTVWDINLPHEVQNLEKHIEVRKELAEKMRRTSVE

| Compound | Ki |
| --- | --- |
| CNc1nc(Nc2cnn(CCN3CCOCC3)c2)ncc1C(F)(F)F [Example 3, N^4-methyl-N^2-(1-(2-morpholinoethyl)-1H-pyrazol-4-yl)-5-(trifluoromethyl) pyrimidine-2,4-diamine] | 15 nM |
| Cc1c(Nc2ncc(Cl)c(OC3CCOCC3)n2)cnn1C [Example 9, 5-Chloro-N-(1,5-dimethyl-1H-pyrazol-4-yl)-4-(tetrahydro-2H-pyran-4-yloxy)pyrimidin-2-amine] | 39 nM |
| CNc1nc(Nc2c(C)nn(C)c2C)ncc1C(F)(F)F [Example 10, N^4-methyl-5-(trifluoromethyl)-N^2-(1,3,5-trimethyl-1H-pyrazol-4-yl)pyrimidinc-2,4-diamine] | 96 nM |
| CC(C)n1cc(Nc2ncc(Cl)c(OC3CCOCC3)n2)cn1 [Example 11, 5-Chloro-N-(1-isopropyl-1H-pyrazol-4-yl)-4-(tetrahydro-2H-pyran-4-yloxy)pyrimidin-2-amine] | 33 nM |
| COc1nc(Nc2cnn(C)c2C)ncc1Cl [Example 12, 5-Chloro-N-(1,5-dimethyl-1H-pyrazol-4-yl)-4-methoxy-pyrimidin-2-amine] | 9.1 nM |
| Cc1c(Nc2ncc(C(F)(F)F)c(N3CCCC3)n2)cnn1C [Example 13, N-(1,5-dimethyl-1H-pyrazol-4-yl)-4-(pyrrolidin-1-yl)-5-(trifluoromethyl) pyrimidin-2-amine] | 12 nM |
| COc1nc(Nc2cn(C)nc2C)ncc1Cl [Example 15, 5-Chloro-N-(1,3-dimethyl-1H-pyrazol-4-yl)-4-methoxy-pyrimidin-2-amine] | 14.4 nM |
| COc1nc(Nc2cn(C3COC3)nc2C)ncc1Cl [Example 18, 5-Chloro-4-methoxy-N-(3-methyl-1-(oxetan-3-yl)-1H-pyrazol-4-yl)pyrimidin-2-amine] | 22 nM |
| COCCn1cc(Nc2ncc(Cl)c(OC)n2)c(C)n1 [Example 19, 5-Chloro-4-methoxy-N-(1-(2-methoxyethyl)-3-methyl-1H-pyrazol-4-yl)pyrimidin-2-amine] | 15 nM |
| COCCn1ncc(Nc2ncc(Cl)c(OC)n2)c1C [Example 20, 5-chloro-4-methoxy-N-(1-(2-methoxyethyl)-5-methyl-1H-pyrazol-4-yl)pyrimidin-2-amine] | 19 nM |
| COc1nc(Nc2cnn(C)c2Cl)ncc1Cl [Example 21, 5-Chloro-N-(5-chloro-1-methyl-1H-pyrazol-4-yl)-4-methoxy-pyrimidin-2-amine] | 20 nM |
| COc1nc(Nc2cn(CC(C)(C)O)nc2C)ncc1Cl [Example 23] | 27 nM |
| CCn1cc(Nc2ncc(Cl)c(OC)n2)c(C)n1 [Example 26, 5-Chloro-N-(1-ethyl-3-methyl-1H-pyrazol-4-yl)-4-methoxy-pyrimidin-2-amine] | 13 nM |
| CNc1nc(Nc2cn(C3COC3)nc2C)ncc1Cl [Example 27, 5-Chloro-N^4-methyl-N^2-(3-methyl-1-(oxetan-3-yl)-1H-pyrazol-4-yl)pyrimidine-2,4-diamine] | 8.8 nM |
| COc1nc(Nc2cn(C(C)C)nc2C)ncc1Cl [Example 29, 5-Chloro-N-(1-isopropyl-3-methyl-1H-pyrazol-4-yl)-4-methoxy-pyrimidin-2-amine] | 22 nM |
| CNc1nc(Nc2cn(C(C)C)nc2C)ncc1Cl [Example 31, 5-Chloro-N^2-(1-isopropyl-3-methyl-1H-pyrazol-4-yl)-N^4-methylpyrimidine-2,4-diamine] | 12 nM |
| CNc1nc(Nc2cn(C3CCOCC3)nc2C)ncc1C(F)(F)F [Example 32, N^4-methyl-N^2-(3-methyl-1-(tetrahydro-2H-pyran-4-yl)-1H-pyrazol-4-yl)-5-(trifluoromethyl) pyrimidine-2,4-diamine] | 24 nM |
| CNc1nc(Nc2ccnn2C)ncc1F [Example 35, 5-Fluoro-N^4-methyl-N^2-(2-methyl-2H-pyrazol-3-yl)-pyrimidine-2,4-diamine] | 267 nM |
| CNc1nc(Nc2cc(C(C)C)nn2C)ncc1C(F)(F)F [Example 38, N^2-(3-isopropyl-1-methyl-1H-pyrazol-5-yl)-N^4-methyl-5-(trifluoromethyl) pyrimidine-2,4-diamine] | 12 nM |
| COc1nc(Nc2cc(C3CC3)nn2C)ncc1Cl [Example 39, 5-Chloro-N-(3-cyclopropyl-1-methyl-1H-pyrazol-5-yl)-4-methoxy-pyrimidin-2-amine] | 59 nM |

| Compound | Ki |
| --- | --- |
| COc1nc(Nc2cc(C(C)C)nn2C)ncc1Cl [Example 41, 5-Chloro-N-(3-isopropyl-1-methyl-1H-pyrazol-5-yl)-4-methoxy-pyrimidin-2-amine] | 70 nM |
| CNc1nc(Nc2cc(C(C)C)nn2C)ncc1Cl [Example 42, 5-Chloro-N^2-(5-isopropyl-2-methyl-2H-pyrazol-3-yl)-N^4-methyl-pyrimidine-2,4-diamine] | 16 nM |
| CNc1nc(Nc2cc(C3CC3)nn2C)ncc1Cl [Example 45, 5-Chloro-N^2-(5-cyclopropyl-2-methyl-2H-pyrazol-3-yl)-N^4-methyl-pyrimidine-2,4-diamine] | 13.4 nM |
| CNc1nc(Nc2ccnn2C(C)C)ncc1C(F)(F)F [Example 47, N^2-(1-isopropyl-1H-pyrazol-5-yl)-N^4-methyl-5-(trifluoromethyl) pyrimidine-2,4-diamine] | 112 nM |
| COc1nc(Nc2cn(S(C)(=O)=O)nc2C)ncc1Cl [Example 54, 5-chloro-4-methoxy-N-(3-methyl-1-(methylsulfonyl)-1H-pyrazol-4-yl)pyrimidin-2-amine] | 7.8 nM |
| COc1nc(Nc2cnn(-c3ccccc3)c2C)ncc1Cl [Example 56, 5-chloro-4-methoxy-N-(5-methyl-1-phenyl-1H-pyrazol-4-yl)pyrimidin-2-amine] | 27 nM |
| CNc1nc(Nc2ccn(C(C)C)n2)ncc1C(F)(F)F [Example 57, N^2-(1-isopropyl-1H-pyrazol-3-yl)-N4-methyl-5-(trifluoromethyl) pyrimidine-2,4-diamine] | 2.5 nM |
| CNc1nc(Nc2cnn(CC(F)(F)F)c2C)ncc1C(F)(F)F [Example 58, N^4-methyl-N^2-(5-methyl-1-(2,2,2-trifluoroethyl)-1H-pyrazol-4-yl)-5-(trifluoromethyl) pyrimidine-2,4-diamine] | 3.6 nM |
| COc1nc(Nc2cnn(-c3ccc(S(C)(=O)=O)cc3)c2C)ncc1Cl [Example 60, 5-chloro-4-methoxy-N-(5-methyl-1-(4-(methylsulfonyl)phenyl)-1H-pyrazol-4-yl)pyrimidin-2-amine] | 15 nM |
| CCNc1nc(Nc2ccn(C)n2)ncc1C(F)(F)F [Example 61, N^4-ethyl-N^2-(1-methyl-1H-pyrazol-3-yl)-5-(trifluoromethyl) pyrimidine-2,4-diamine] | 4.6 nM |
| Cc1c(Nc2ncc(Cl)c(OC3COC3)n2)cnn1C [Example 62, 5-chloro-N-(1,5-dimethyl-1H-pyrazol-4-yl)-4-(oxetan-3-yloxy)pyrimidin-2-amine] | 39 nM |
| Cc1c(Nc2ncc(Cl)c(OCC(F)F)n2)cnn1C [Example 63, 5-chloro-4-(2,2-difluoroethoxy)-N-(1,5-dimethyl-1H-pyrazol-4-yl)pyrimidin-2-amine] | 24 nM |
| Cc1c(Nc2ncc(Cl)c(OCC(F)(F)F)n2)cnn1C [Example 64, 5-chloro-N-(1,5-dimethyl-1H-pyrazol-4-yl)-4-(2,2,2-trifluoroethoxy) pyrimidin-2-amine] | 58.6 nM |
| COc1nc(Nc2cn(C3CCOCC3)nc2C)ncc1Cl [Example 65, 5-chloro-4-methoxy-N-(3-methyl-1-(tetrahydro-2H-pyran-4-yl)-1H-pyrazol-4-yl)pyrimidin-2-amine] | 2.9 nM |
| COc1nc(Nc2cn(C3CCN(C(=O)C4(C)CC4)CC3)nc2C)ncc1Cl [Example 66, (4-(4-(5-chloro-4-methoxy-pyrimidin-2-ylamino)-3-methyl-1H-pyrazol-1-yl)piperidin-1-yl)(1-methylcyclo-propyl) methanone] | 66 nM |
| COc1nc(Nc2cnn(C3CCN(C(=O)C4(C)CC4)CC3)c2C)ncc1Cl [Example 67, (4-(4-(5-chloro-4-methoxy-pyrimidin-2-ylamino)-5-methyl-1H-pyrazol-1-yl)piperidin-1-yl)(1-methylcyclo-propyl) methanone] | 89 nM |
| COc1nc(Nc2cn(-c3ccc(C#N)cc3)nc2C)ncc1Cl [Example 68, 4-(4-(5-chloro-4-methoxy-pyrimidin-2-ylamino)-3-methyl-1H-pyrazol-1-yl)benzonitrile] | 2.4 nM |
| COc1nc(Nc2cn(-c3ccncc3C)nc2C)ncc1Cl [Example 69, 5-chloro-4-methoxy-N-(3-methyl-1-(3-methylpyridin-4-yl)-1H-pyrazol-4-yl)pyrimidin-2-amine] | 55 nM |
| COc1nc(Nc2cnn(S(=O)(=O)C3CC3)c2C)ncc1Cl [Example 70, 5-chloro-N-(1-(cyclopropyl-sulfonyl)-5-methyl-1H-pyrazol-4-yl)-4-methoxy-pyrimidin-2-amine] | 15 nM |
| COc1nc(Nc2cn(S(=O)(=O)C3CC3)nc2C)ncc1Cl [Example 71, 5-chloro-N-(1-(cyclopropyl-sulfonyl)-3-methyl-1H-pyrazol-4-yl)-4-methoxy-pyrimidin-2-amine] | 20 nM |

— patent US8815882B2, “Pyrazole aminopyrimidine derivatives as LRRK2 modulators” (Genentech, Inc., priority 2010, dated 2014)
